Test results as given in patent publication US6835754B2, “Use of aryl nitrone compounds in methods for treating neuropathic pain” (Renovis, Inc., priority 2001, dated 2004).

Columns and labels:
[1] = tested on: male Swiss Webster mice, phenylquinone-induced writhing; assay: Phenylquinone (PQ) writhing assay, % inhibition (Swiss Webster mice); format: in vivo; settings: for inhibition at 30 mg/kg / % Inhibition of Writhing Response: 30 mg/kg orally in 1% methyl cellulose, 1 hour before PQ 2 mg/kg ip; for inhibition at 30 mg/kg: read-out: % Inhibition of Writhing Response
Description: Test compounds were prepared as a suspension in 1% methyl cellulose and dosed orally at a dose of 30 mg/kg to male Swiss Webster mice weighing between 15 and 25 g with 10 mice per group. Test compounds was given 1 hour before the injection of phenylquinone. Phenylquinone (Sigma) was injected intraperitoneally at a dose of 2 mg/kg. After a 5 minute acclimation period, the number of writhes was counted for a 5 minute observation period for each mouse. The total number of writhes for each test compound was compared with a vehicle group. Results were expressed as % inhibition compared to the vehicle treated group means (Table VII).
In related experiment, a dose response relationship was established for the compound of Example 1 using the same experimental protocl as above. […] This is shown graphically in FIG. 2.

Rats (Sprague-Dawley) = assay: Rat hot-plate assay (55° C.) for general analgesia; format: in vivo
Description: The purpose of the experiment was to determine if the compound of Example 16 has significant general analgesic activity as opposed to the desired activity against neuropathic pain. Test compound, 1% methylcellulose as a vehicle and morphine sulfate as a positive standard were tested for analgesic activity using a rat hot-plate assay (55° C.) of Eddy and Leimbach (J. Pharmacol. Ep. Ther 107; 385-393 (1953)) to evaluate nociceptive responses.
Rats (Sprague-Dawley, 217-227 g.) were used with 10 animals per group. Two pre-dose trials to nociceptive responses were determined before administration of compounds. Sixty minutes prior to testing, rats were dosed with either test compound (100 mg/kg, p.), as a suspension in 1% methylcellulose, or 1% methylcellulose as a vehicle ([…], p.). thirty minutes prior to testing, a third group was dosed with morphine sulfate (4.0 mg/kg, 2.0 ml/kg, sc) to test for nociceptive responses using a hot plate. Latency to rear paw licking response or jump response (1) was recorded using an electronic timer. The cut-off time for either response was 30 seconds. Statistical significance was assessed for paired groups using a Turkey test and between non-paired groups using Kruskal-Wallis test. A probability value of <0.05 was identified as statistically significant.

[2] = tested on: Chronic constriction injury (CCI) rats; assay: Bennett chronic constriction injury (CCI) mononeuropathy, cold allodynia assay; format: in vivo, Sparague Dawley rats; settings: 100 mg/kg, p.o., tested 1-2 hrs post-dose; FIG. 3
Description: The peripheral mononeuropathy was induced by loose ligation of the sciatic nerve in anaesthetized rats. Ten days later, the nociceptive threshold was evaluated. The test compound is administered orally 1 hour prior to pain measurement. For comparison, a predose threshold was determined and a control experiment using 1% methyl cellulose was run. […] Animals were again tested 1-2 hrs post-dose. Predose and postdose average scores are determined.
In a related experiment a dose-response relationship for the compound of Example 20 was determined using the same experimental protocol. […] Animals were again tested 1 hr post-dose.

[3] = tested on: ICR derived male mice, phenylquinone-induced writhing; assay: Phenylquinone (PQ) Writhing assay, number of writhes (MDS Panlabs, ICR mice); format: in vivo; settings: for # Writhes (X + SEM): per os, 60 min before PQ 2 mg/kg ip, vehicle 20.8 ± 0.7, **P<0.01
Description: The compounds of Example 20 and Example 16 administered orally at doses of 10, 30 and 100 mg/kg. Vehicle of 2% Tween 80 in distilled water was used.
In this study, ICR derived male mice provided by animal breeding center of MDS Panlabs Taiwan, Ltd. were used. Space allocation for 10 animals was 45×23×15 cm. Mice were housed in APEC^R (Allentown Gaging, Allentown, N.J. 08501, U.S.A.) cages in a positive pressure isolation (NuAire^R, Mode: Nu-605, airflow velocity 50±5 ft/min, HEPA Filter) and maintained in a controlled temperature (22°-24° C.) and humidity (60%-80%) environment with 12 hour light dark cycles for at least one week in MDS Panlabs Taiwan laboratory prior to be used. Free access to standard lab chow for mice (Fwusow Industry Co., Limited, Taiwan) and tap water was granted. All aspects of this work including housing, experimentation and disposal of animals were performed in general accordance with the International Guiding Principles for Biomedical Research Involving Animals (CIOMS Publication No. ISBN 92 90360194, 1985).
The method of Siegmund, E. et al., Proc. Soc. Exp. Biol. Med. 95: 729-731, 1957, “A method for evaluating both non-narcotic and narcotic analgesics” was used. One hour after vehicle or compound administration, the number of writhes was recorded for each mouse in groups of 10 animals during a 5 to 10 minute period following 2 mg/kg. 1.p. of phenylquinone.
Groups of 10 male ICR mice weighing 22±2 gm were employed. Three doses (10, 30 and 100 mg/kg) of test substances suspended in a vehicle of 2% Tween 80 were administered per os. The control group received vehicle alone. […] The mean±SEM value of writhing number for each treatment group was then calculated and Dunnett's test was applied for comparison between vehicle and treated groups. Differences were considered significant when P<0.01.

Compound: CC(=O)Oc1c(C(C)(C)C)cc(/C=[N+](\[O-])C(C)(C)C)cc1C(C)(C)C [Example 1, α-(4-Acetoxy-3,5-di-tert-butylphenyl)-N-tert-butylnitrone]
- inhibition at 30 mg/kg ([1]; Mus musculus): 65%
- ED50 ([1]; Mus musculus, dose response, oral, mice): 2.7 mg/kg

Compound: CCC(=O)Oc1c(C(C)(C)C)cc(/C=[N+](\[O-])C(C)(C)C)cc1C(C)(C)C [Example 8, α-(4-propionyloxy-3,5-di-tert-butylphenyl)-N-tert-butylnitrone]
- melting point: 202 to 222 °C

Compound: CC(=O)Oc1c(C(C)(C)C)cc(/C=[N+](/C)[O-])cc1C(C)(C)C [Example 9, α-(4-acetoxy-3,5-di-tert-butylphenyl)-N-methylnitrone]
- melting point: 136 to 143 °C

Compound: COCOc1c(C(C)(C)C)cc(/C=[N+](\[O-])C(C)(C)C)cc1C(C)(C)C [Example 16, α-(4-Methoxymethoxy-3,5-di-tert-butylphenyl)-N-tert-butylnitrone]
- effect on hot-plate latency compared with pre-dose (Rats (Sprague-Dawley); 100 mg/kg orally, sixty minutes prior to testing): did not significantly affect
- hot-plate latency, post-dose (mean±SEM) (Rats (Sprague-Dawley); 100 mg/kg orally, sixty minutes prior to testing, pre-dose 7.9±1.0 seconds): 9.7 ± 1.0 s
- effectiveness in cold stimulus latency, Bennett CCI model [2]: effective
- analgesia relative to vehicle control group (PQ writhing) ([3]; 100, 30 and 10 mg/kg orally, P<0.01 for all 3 doses, Dunnett's test): significant
- # Writhes (X + SEM) ([3]; Dose 30 mg/kg): 3.9 ± 1.3**
- # Writhes (X + SEM) ([3]; Dose 10 ml/kg as printed): 14.9 ± 1.2**
- # Writhes (X + SEM) ([3]; Dose 100 ml/kg as printed): 1.3 ± 0.6**

Compound: CC(C)(C)CC(C)(C)[N+]([O-])=Cc1cc(C(C)(C)C)c(O)c(C(C)(C)C)c1 [Example 21, α-(4-hydroxy-3,5-di-tert-butylphenyl)-N-tert-octylnitrone]
- melting point: 113 to 115 °C
- inhibition at 30 mg/kg ([1]; Mus musculus): 30%

Compound: CCCCCC[N+]([O-])=Cc1cc(C)c(O)c(C)c1 [Example 23, a-(4-hydroxy-3,5-dimethylphenyl)-N-hexylnitrone]
- % Inhibition of Writhing Response [1]: 47%
- activity in PQ writhing model ([1]; mice, oral): Significant activity

Compound: CC(C)(C)c1cc(C=[N+]([O-])C(C)(C)CO)cc(C(C)(C)C)c1O [Example 25, a-(4-hydroxy-3,5-di-tert-butylphenyl)-N-(1,1-dimethyl-2-hydroxyethyl)nitrone]
- % Inhibition of Writhing Response [1]: 30%
- activity in PQ writhing model ([1]; mice, oral): Significant activity

Compound: CCC(C)(C)[N+]([O-])=Cc1cc(C(C)(C)C)c(O)c(C(C)(C)C)c1 [Example 26, a-(4-hydroxy-3,5-di-tert-butylphenyl)-N-(1,1-dimethylpropyl)nitrone]
- % Inhibition of Writhing Response [1]: 48%

Compound: CC(C)[N+]([O-])=Cc1cc(C(C)(C)C)c(O)c(C(C)(C)C)c1 [Example 27, a-(4-hydroxy-3,5-di-tert-butylphenyl)-N-(1-methylethyl)nitrone]
- % Inhibition of Writhing Response [1]: 30%

Compound: CC(C)(C)c1cc(C=[N+]([O-])Cc2ccccc2)cc(C(C)(C)C)c1O [Example 28, a-(4-hydroxy-3,5-di-tert-butylphenyl)-N-benzylnitrone]
- % Inhibition of Writhing Response [1]: 45%

Compound: COCOc1c(C(C)(C)C)cc(C=[N+]([O-])CC2CCCCC2)cc1C(C)(C)C [Example 29, α-(4-methoxymethoxy-3,5-di-tert-butylphenyl)-N-cyclohexylmethylnitrone]
- melting point: 143.1 °C

Compound: COCOc1c(C(C)(C)C)cc(/C=[N+](\[O-])Cc2ccccc2)cc1C(C)(C)C [Example 31, α-(4-methoxymethoxy-3,5-di-tert-butylphenyl)-N-benzylnitrone]
- melting point: 134.2 °C

Compound: COc1c(C(C)(C)C)cc(/C=[N+](\[O-])C(C)(C)C)cc1C(C)(C)C [Example 32, α-(4-methoxy-3,5-di-tert-butylphenyl)-N-tert-butylnitrone]
- melting point: 223.1 °C
- inhibition at 30 mg/kg ([1]; Mus musculus): 38%

Compound: CCOc1c(C(C)(C)C)cc(/C=[N+](\[O-])C(C)(C)C)cc1C(C)(C)C [Example 33, α-(4-ethoxy-3,5-di-tert-butylphenyl)-N-tert-butylnitrone]
- melting point: 212.1 °C
- inhibition at 30 mg/kg ([1]; Mus musculus): 4%

Compound: CCOC(=O)COc1c(C(C)(C)C)cc(C=[N+]([O-])C(C)(C)C)cc1C(C)(C)C [Example 34, α-(4-carbethoxymethoxy-3,5-di-tert-butylphenyl)-N-tert-butylnitrone]
- melting point: 188 °C

Compound: CN1CC[C@]23c4c5ccc(O)c4O[C@H]2[C@@H](O)C=C[C@H]3[C@H]1C5.O=S(=O)(O)O [morphine sulfate, reference compound]
- effect on hot-plate mean latency compared with pre-dose (Rats (Sprague-Dawley); 4.0 mg/kg sc, thirty minutes prior to testing): significantly increased
- hot-plate mean latency to jump/hind paw licking response, post-dose (mean±SEM) (Rats (Sprague-Dawley); 4.0 mg/kg sc, thirty minutes prior to testing, pre-dose 9.9±1.0 seconds, P<0.001): 24.3 ± 2.3 s

Compound: a-(4-hydroxy-3,5-dimethoxyphenyl)-N-tert-butylnitrone [Example 22]
- % Inhibition of Writhing Response [1]: 32%

Compound: a-(4-hydroxy-3,5-dimethylphenyl)-N-tert-butylnitrone [Example 24]
- % Inhibition of Writhing Response [1]: 23%

Compound: α-(4-Isobutanoyl-3,5-di-tert-butylphenyl)-N-tert-butylnitrone [Example 2]
- % Inhibition of Writhing Response [1]: 29%

Compound: α-(4-n-Butanoyl-3,5-di-tert-butylphenyl)-N-tert-butylnitrone [Example 3]
- % Inhibition of Writhing Response [1]: 62%
